# According to ChEMBL document CHEMBL1250439, “2-phenyl-1-[4-(2-piperidine-1-yl-ethoxy)benzyl]-1H-benzimidazoles as ligands for the estrogen receptor: synthesis and pharmacological evaluation” (Bioorg Med Chem, 2010):
# Activity calls are given as the source filed them. The rule behind the calls is not given here.
# How the values were obtained:
# [1] = tested on: MDA-MB-231; assay: Cytostatic activity against human MDA-MB-231 cells after 3 days by microtiter assay; format: functional, cell-based
# [2] = tested on: MCF7; assay: Cytostatic activity against human MCF7 cells at 10 uM after 3 days by microtiter assay; format: functional
# [3] = tested on: MCF7; assay: Cytostatic activity against human MCF7 cells at 5 uM after 3 days by microtiter assay; format: functional
# [4] = tested on: Calf thymus DNA; assay: Binding affinity to calf thymus DNA assessed as change in melting temperature; format: nucleic-acid assay; settings: Bos taurus
# [5] = target: T1, Adenosine receptor A1 (Rattus norvegicus, UniProt P25099); assay: Displacement of [3H]CCPA from adenosine A1 receptor in rat brain cortical membrane; format: cell membranes
# T1 sequence (P25099 whole entry): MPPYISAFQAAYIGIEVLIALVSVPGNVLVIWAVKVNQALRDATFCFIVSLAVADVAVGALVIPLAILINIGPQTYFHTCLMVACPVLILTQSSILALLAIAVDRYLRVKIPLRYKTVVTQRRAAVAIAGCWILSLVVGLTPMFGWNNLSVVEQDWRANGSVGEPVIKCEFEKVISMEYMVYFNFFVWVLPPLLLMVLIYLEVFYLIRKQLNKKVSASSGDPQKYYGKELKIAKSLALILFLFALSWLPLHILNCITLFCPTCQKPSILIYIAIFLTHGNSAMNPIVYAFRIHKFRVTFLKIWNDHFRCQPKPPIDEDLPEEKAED
# [6] = tested on: MCF7; assay: Cytostatic activity against human MCF7 cells at 1 uM after 3 days by microtiter assay; format: functional
# [7] = target: T2, Estrogen receptor (Homo sapiens, UniProt P03372); assay: Antagonist activity at human ERalpha expressed in human MCF7 cells by luciferase reporter gene assay; format: functional, cell-based
# T2 sequence (P03372 whole entry): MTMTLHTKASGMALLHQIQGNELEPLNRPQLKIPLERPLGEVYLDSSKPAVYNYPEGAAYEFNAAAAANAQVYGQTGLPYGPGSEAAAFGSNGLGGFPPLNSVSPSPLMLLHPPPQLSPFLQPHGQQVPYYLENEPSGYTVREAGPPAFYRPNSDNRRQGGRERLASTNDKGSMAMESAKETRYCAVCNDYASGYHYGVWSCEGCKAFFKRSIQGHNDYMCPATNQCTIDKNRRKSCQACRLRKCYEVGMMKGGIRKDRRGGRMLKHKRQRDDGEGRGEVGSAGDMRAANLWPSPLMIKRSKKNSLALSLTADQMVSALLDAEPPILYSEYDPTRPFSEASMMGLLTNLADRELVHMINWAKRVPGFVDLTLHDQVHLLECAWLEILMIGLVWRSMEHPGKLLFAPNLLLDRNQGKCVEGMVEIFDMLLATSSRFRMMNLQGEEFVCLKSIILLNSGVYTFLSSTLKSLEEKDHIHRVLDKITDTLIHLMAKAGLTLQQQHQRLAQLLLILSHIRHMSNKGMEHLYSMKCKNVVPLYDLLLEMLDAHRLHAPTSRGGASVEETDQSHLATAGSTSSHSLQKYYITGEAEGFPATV
# [8] = target: Estrogen receptor beta (Homo sapiens) (UniProt Q92731); assay: Displacement of [3H]E2 from human estrogen receptor beta relative to control
# Estrogen receptor beta (Homo sapiens), sequence (Q92731 whole entry): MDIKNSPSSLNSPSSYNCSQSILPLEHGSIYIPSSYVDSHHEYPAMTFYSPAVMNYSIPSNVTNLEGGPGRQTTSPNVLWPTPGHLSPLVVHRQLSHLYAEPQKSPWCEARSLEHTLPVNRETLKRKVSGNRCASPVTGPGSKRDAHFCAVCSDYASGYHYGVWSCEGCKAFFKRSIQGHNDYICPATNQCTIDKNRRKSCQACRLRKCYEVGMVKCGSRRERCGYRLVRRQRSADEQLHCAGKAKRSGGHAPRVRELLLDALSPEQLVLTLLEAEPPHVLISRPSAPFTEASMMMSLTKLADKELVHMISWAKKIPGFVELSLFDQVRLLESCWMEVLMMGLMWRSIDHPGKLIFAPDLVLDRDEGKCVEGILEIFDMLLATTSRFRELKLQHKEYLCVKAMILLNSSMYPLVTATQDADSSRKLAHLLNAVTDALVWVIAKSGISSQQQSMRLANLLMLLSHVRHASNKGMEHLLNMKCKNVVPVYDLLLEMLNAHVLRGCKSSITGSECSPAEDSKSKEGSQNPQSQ
# [9] = target: T3, Estrogen receptor (Homo sapiens) (UniProt P03372); assay: Displacement of [3H]E2 from human estrogen receptor alpha relative to control
# T3 sequence (whole entry): T2 sequence (P03372 whole entry)
# [10] = target: T2, Estrogen receptor; assay: Antagonist activity at human ERalpha expressed in human MCF7 cells at 10 uM by luciferase reporter gene assay; format: functional, cell-based
SMILES,Activity [1],Activity [2],T/C [3],ΔTm [4],T/C [2],T/C [6],other results
O=C(c1ccc(OCCN2CCCCC2)cc1)c1c(-c2ccc(O)cc2)sc2cc(O)ccc12 [RALOXIFENE],Active,inactive,0%,,,,
CC/C(=C(\c1ccccc1)c1ccc(OCCN(C)C)cc1)c1ccccc1 [TAMOXIFEN],Active,inactive,0%,,,,
Oc1ccc(-c2nc3ccc(O)cc3n2Cc2ccc(OCCN3CCCCC3)cc2)cc1,,,,3 °C,,,Ki [5]: ≤ 3.7 µM
Oc1ccc2nc(-c3ccccc3)n(Cc3ccc(OCCN4CCCCC4)cc3)c2c1,,,0%,3 °C,<0%,50%,IC50 [7]: 310 nM
Oc1ccc(-c2nc3cc(O)ccc3n2Cc2ccc(OCCN3CCCCC3)cc2)cc1,,,,3 °C,,,Ki [5]: 3.7 µM
Oc1ccc2c(c1)nc(-c1ccccc1)n2Cc1ccc(OCCN2CCCCC2)cc1,,,0%,3 °C,<0%,50%,RBA [8]: 0.54%; RBA [9]: 0.43%
CCC(=C(c1ccc(O)cc1)c1ccc(OCCN(C)C)cc1)c1ccccc1,Active,inactive,0%,,,,
Oc1ccc(-c2nc3ccccc3n2Cc2ccc(OCCN3CCCCC3)cc2)cc1,,,0%,3 °C,<0%,50%,IC50 [10]: 5.1 µM
